# Test system: P12-Ichikawa
# Test: cell viability relative to DMSO control; higher = less cytotoxic
# Settings: 48 h
# Procedure, shortened: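 Three leukemia lines were tested: NOMO1 and SEM at 500 cells/well and P12-Ichikawa at 1000 cells/well. Each was adapted for at least four passages in each medium and seeded in 5 μl in 1536-well plates, and library compounds in DMSO were pin-dosed from 47 μM to 0.79 nM in 11 threefold steps. After 48 h at 37°C, CellTiter-Glo One luminescence was read. Viability is a percentage relative to DMSO wells on each plate, with cell-free wells as background.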
# [1] = HPLM + 10% dialyzed FBS, 0.000781 µM
# [2] = HPLM + 10% dialyzed FBS, 0.00234 µM
# [3] = HPLM + 10% dialyzed FBS, 0.00702 µM
# [4] = HPLM + 10% dialyzed FBS, 0.0211 µM
# [5] = HPLM + 10% dialyzed FBS, 0.0632 µM
# [6] = HPLM + 10% dialyzed FBS, 0.19 µM
# [7] = HPLM + 10% dialyzed FBS, 0.569 µM
# [8] = HPLM + 10% dialyzed FBS, 1.71 µM
# [9] = HPLM + 10% dialyzed FBS, 5.12 µM
# [10] = HPLM + 10% dialyzed FBS, 15.4 µM
# [11] = HPLM + 10% dialyzed FBS, 46.1 µM
# [12] = RPMI 5 mM glucose + 10% FBS, 0.000781 µM
# [13] = RPMI 5 mM glucose + 10% FBS, 0.00234 µM
# [14] = RPMI 5 mM glucose + 10% FBS, 0.00702 µM
# [15] = RPMI 5 mM glucose + 10% FBS, 0.0211 µM
# [16] = RPMI 5 mM glucose + 10% FBS, 0.0632 µM
# [17] = RPMI 5 mM glucose + 10% FBS, 0.19 µM
# [18] = RPMI 5 mM glucose + 10% FBS, 0.569 µM
# [19] = RPMI 5 mM glucose + 10% FBS, 1.71 µM
# [20] = RPMI 5 mM glucose + 10% FBS, 5.12 µM
# [21] = RPMI 5 mM glucose + 10% FBS, 15.4 µM
# [22] = RPMI 5 mM glucose + 10% FBS, 46.1 µM
# [23] = RPMI 5 mM glucose + 10% dialyzed FBS, 0.000781 µM
# [24] = RPMI 5 mM glucose + 10% dialyzed FBS, 0.00234 µM
# [25] = RPMI 5 mM glucose + 10% dialyzed FBS, 0.00702 µM
# [26] = RPMI 5 mM glucose + 10% dialyzed FBS, 0.0211 µM
# [27] = RPMI 5 mM glucose + 10% dialyzed FBS, 0.0632 µM
# [28] = RPMI 5 mM glucose + 10% dialyzed FBS, 0.19 µM
# [29] = RPMI 5 mM glucose + 10% dialyzed FBS, 0.569 µM
# [30] = RPMI 5 mM glucose + 10% dialyzed FBS, 1.71 µM
# [31] = RPMI 5 mM glucose + 10% dialyzed FBS, 5.12 µM
# [32] = RPMI 5 mM glucose + 10% dialyzed FBS, 15.4 µM
# [33] = RPMI 5 mM glucose + 10% dialyzed FBS, 46.1 µM
SMILES,cell viability [1],cell viability [2],cell viability [3],cell viability [4],cell viability [5],cell viability [6],cell viability [7],cell viability [8],cell viability [9],cell viability [10],cell viability [11],cell viability [12],cell viability [13],cell viability [14],cell viability [15],cell viability [16],cell viability [17],cell viability [18],cell viability [19],cell viability [20],cell viability [21],cell viability [22],cell viability [23],cell viability [24],cell viability [25],cell viability [26],cell viability [27],cell viability [28],cell viability [29],cell viability [30],cell viability [31],cell viability [32],cell viability [33]
COc1ccc(/C=C\c2cc(OC)c(OC)c(OC)c2)cc1O,21%,15%,12.9%,11.3%,11.9%,9.68%,9.98%,8.29%,5.6%,4.13%,3.74%,27.5%,22%,13.8%,14.2%,11.2%,11.2%,10.4%,10.6%,7.66%,3.98%,2.78%,33.5%,26.7%,20.4%,14.9%,15.3%,14.3%,13.1%,11%,9.65%,7.03%,3.92%
O=C(NC1CCNCC1)c1n[nH]cc1NC(=O)c1c(Cl)cccc1Cl,106%,111%,117%,111%,115%,111%,112%,54.1%,11.6%,12.2%,9.17%,114%,115%,112%,109%,113%,121%,111%,50.9%,12.9%,12.1%,7.33%,114%,112%,109%,115%,116%,112%,103%,79.1%,13.7%,13.8%,10.1%
CN1C(=O)\C(=C/C(=C1/NC2=C(F)C=C(I)C=C2)C(=O)NOCCO)C,94.6%,99.5%,103%,93.4%,90.4%,90.1%,94.5%,88.9%,94.5%,87.7%,78.1%,98.2%,104%,98.9%,90.7%,88.8%,85.3%,85.5%,84.7%,85.7%,87.1%,81.1%,94.6%,105%,96.2%,99.6%,92.3%,90.7%,95.8%,90.9%,101%,91%,74.9%
COC[C@H](NC(=O)c1cnc(C)s1)C(=O)N[C@@H](COC)C(=O)N[C@@H](Cc1ccccc1)C(=O)[C@@]1(C)CO1,96.6%,99.8%,98.3%,95%,105%,69.8%,4.41%,3.23%,1.91%,1.12%,2.28%,89%,98.2%,99.8%,96.3%,89.8%,78.5%,3.57%,2.76%,1.79%,1.04%,1.83%,90.8%,93.5%,94.3%,95.7%,87.4%,58.1%,3.41%,2.83%,1.67%,0.842%,1.82%
C[C@H]([C@H](O)CCC(C)(C)O)[C@H]1CC[C@@]2(O)C/3=C/C(=O)[C@@H]4C[C@@H](O)[C@@H](O)C[C@]4(C)[C@H]3CC[C@]12C,,,,,,,,,,,,,,,,,,,,,,,109%,125%,121%,124%,131%,122%,119%,121%,120%,107%,113%
COc1nc(-c2ccc3c(c2)OCO3)n(-c2ccc(NC(=O)CSc3ccccc3)cc2)n1,109%,108%,111%,107%,108%,110%,112%,104%,104%,103%,108%,107%,116%,113%,118%,118%,113%,113%,103%,102%,97.2%,92.5%,130%,107%,119%,107%,116%,104%,120%,108%,95.9%,108%,85.6%
CC(C)C[C@H](CN)CC(=O)O,111%,106%,106%,109%,106%,103%,101%,102%,95.7%,94.2%,93%,99.4%,105%,102%,96.2%,101%,99.3%,93.6%,96.1%,92.3%,91.5%,95.6%,103%,102%,107%,106%,97.1%,96%,98.9%,96.6%,95.7%,97.9%,98.4%
Cc1cc2c(C(C)C)c(O)c(O)c(C=O)c2c(O)c1-c1c(C)cc2c(C(C)C)c(O)c(O)c(C=O)c2c1O,113%,111%,111%,113%,108%,99.6%,108%,104%,102%,98.1%,17.1%,117%,125%,127%,121%,119%,106%,117%,101%,112%,106%,10.6%,116%,124%,118%,116%,111%,109%,110%,104%,110%,100%,22%
CCC(=O)O[C@@]1([C@@H](C)C[C@H]2[C@@H]3CCC/4=C/C(=O)/C=C\[C@]4(C)[C@@]3(F)[C@@H](O)C[C@]12C)C(=O)CCl,118%,121%,101%,86.8%,79.2%,73%,76.9%,76.9%,70.2%,68.6%,55%,,,,,,,,,,,,134%,107%,83.8%,79.9%,59.9%,61.3%,56.2%,57%,54.1%,51.3%,38.5%
C[C@H](NC(=O)C(=O)Nc1ccccc1C(C)(C)C)C(=O)N[C@@H](CC(=O)O)C(=O)COc1c(F)c(F)cc(F)c1F,107%,120%,122%,130%,125%,124%,130%,129%,120%,88.7%,4.89%,101%,131%,124%,120%,133%,128%,126%,122%,121%,56.4%,4.69%,102%,111%,112%,127%,124%,130%,128%,126%,107%,58.9%,4.53%
CCOC(=O)Nc1ccc(NCc2ccc(F)cc2)cc1N,112%,116%,116%,121%,115%,110%,107%,112%,101%,98.6%,78.6%,113%,122%,122%,109%,122%,114%,118%,114%,109%,107%,102%,118%,113%,122%,118%,110%,121%,113%,111%,98.3%,103%,87.4%
COc1cc2nccc(Oc3ccc(NC(=O)Nc4ccc(F)cc4F)c(F)c3)c2cc1OC,95.4%,93.2%,94.7%,100%,98.1%,89.3%,91.8%,94.1%,85%,76.5%,12.9%,91.1%,94.8%,88.4%,94.8%,93.5%,92.2%,83.8%,86%,73.5%,80.3%,13.7%,88%,98.3%,87.5%,89.9%,82.1%,87.4%,84.5%,85.3%,75%,81.9%,22.2%
